± gives the expanded uncertainty stated by the source.
Assay: xn = mol fraction of the nth substance listed
Conditions: Liquid, Vibrating tube method

Q: What does the source list for CN(C)C=O [dimethylformamide] + O=C=O?
A: mass density (342.93 K, 22027 kPa, x2 = 0.2876): 930.22 ± 0.42 kg/m3; mass density (342.93 K, 23002 kPa, x2 = 0.2876): 931.1 ± 0.42 kg/m3; mass density (342.93 K, 24027 kPa, x2 = 0.2876): 932.06 ± 0.42 kg/m3; mass density (342.93 K, 25009 kPa, x2 = 0.2876): 932.97 ± 0.42 kg/m3; mass density (342.94 K, 7029 kPa, x2 = 0.4502): 913.19 ± 0.41 kg/m3; mass density (342.94 K, 8013 kPa, x2 = 0.4502): 914.64 ± 0.41 kg/m3; mass density (342.94 K, 9011 kPa, x2 = 0.4502): 916.09 ± 0.41 kg/m3; mass density (342.94 K, 9055 kPa, x2 = 0.4068): 917.41 ± 0.41 kg/m3; mass density (342.94 K, 9984 kPa, x2 = 0.4068): 918.63 ± 0.41 kg/m3; mass density (342.94 K, 9999 kPa, x2 = 0.4502): 917.51 ± 0.41 kg/m3; mass density (342.94 K, 11025 kPa, x2 = 0.4502): 918.98 ± 0.41 kg/m3; mass density (342.94 K, 11061 kPa, x2 = 0.4068): 920.01 ± 0.41 kg/m3; mass density (342.94 K, 11996 kPa, x2 = 0.4068): 921.23 ± 0.41 kg/m3; mass density (342.94 K, 12004 kPa, x2 = 0.4502): 920.36 ± 0.41 kg/m3; mass density (342.94 K, 13007 kPa, x2 = 0.4502): 921.76 ± 0.41 kg/m3; mass density (342.94 K, 13050 kPa, x2 = 0.4068): 922.57 ± 0.41 kg/m3; mass density (342.94 K, 13993 kPa, x2 = 0.4502): 923.08 ± 0.41 kg/m3; mass density (342.94 K, 14076 kPa, x2 = 0.4068): 923.82 ± 0.41 kg/m3; mass density (342.94 K, 15011 kPa, x2 = 0.4068): 925 ± 0.41 kg/m3; mass density (342.94 K, 15025 kPa, x2 = 0.4502): 924.49 ± 0.41 kg/m3; mass density (342.94 K, 16021 kPa, x2 = 0.4068): 926.2 ± 0.41 kg/m3; mass density (342.94 K, 16028 kPa, x2 = 0.4502): 925.84 ± 0.41 kg/m3; mass density (342.94 K, 17002 kPa, x2 = 0.4502): 927.13 ± 0.41 kg/m3; mass density (342.94 K, 17029 kPa, x2 = 0.4068): 927.42 ± 0.41 kg/m3; mass density (342.94 K, 18001 kPa, x2 = 0.4068): 928.58 ± 0.41 kg/m3; mass density (342.94 K, 18035 kPa, x2 = 0.4502): 928.51 ± 0.41 kg/m3; mass density (342.94 K, 19023 kPa, x2 = 0.4502): 929.75 ± 0.41 kg/m3; mass density (342.94 K, 19026 kPa, x2 = 0.4068): 929.79 ± 0.41 kg/m3; mass density (342.94 K, 20023 kPa, x2 = 0.4502): 931 ± 0.41 kg/m3; mass density (342.94 K, 20073 kPa, x2 = 0.4068): 931.01 ± 0.41 kg/m3; mass density (342.94 K, 21008 kPa, x2 = 0.4068): 932.09 ± 0.41 kg/m3; mass density (342.94 K, 21013 kPa, x2 = 0.4502): 932.27 ± 0.41 kg/m3; mass density (342.94 K, 22005 kPa, x2 = 0.4068): 933.21 ± 0.42 kg/m3; mass density (342.94 K, 22036 kPa, x2 = 0.4502): 933.51 ± 0.42 kg/m3; mass density (342.94 K, 22992 kPa, x2 = 0.4068): 934.31 ± 0.42 kg/m3; mass density (342.94 K, 23032 kPa, x2 = 0.4502): 934.76 ± 0.42 kg/m3; mass density (342.94 K, 24003 kPa, x2 = 0.4502): 935.89 ± 0.42 kg/m3; mass density (342.94 K, 24049 kPa, x2 = 0.4068): 935.49 ± 0.42 kg/m3; mass density (342.94 K, 25041 kPa, x2 = 0.4502): 937.14 ± 0.42 kg/m3; mass density (342.94 K, 25062 kPa, x2 = 0.4068): 936.61 ± 0.42 kg/m3; mass density (352.81 K, 11994 kPa, x2 = 0.6235): 863.79 ± 0.44 kg/m3; mass density (352.81 K, 13017 kPa, x2 = 0.6235): 868.11 ± 0.44 kg/m3; mass density (352.81 K, 14003 kPa, x2 = 0.6235): 871.85 ± 0.44 kg/m3; mass density (352.81 K, 15051 kPa, x2 = 0.6235): 875.54 ± 0.44 kg/m3; mass density (352.81 K, 16021 kPa, x2 = 0.6235): 878.85 ± 0.44 kg/m3; mass density (352.81 K, 17011 kPa, x2 = 0.6235): 882.12 ± 0.44 kg/m3; mass density (352.81 K, 18025 kPa, x2 = 0.6235): 885.31 ± 0.44 kg/m3; mass density (352.81 K, 19034 kPa, x2 = 0.6235): 888.42 ± 0.44 kg/m3; mass density (352.81 K, 20027 kPa, x2 = 0.6235): 891.37 ± 0.44 kg/m3; mass density (352.81 K, 20969 kPa, x2 = 0.6235): 894.02 ± 0.44 kg/m3; mass density (352.81 K, 22044 kPa, x2 = 0.6235): 897.02 ± 0.44 kg/m3; mass density (352.81 K, 22987 kPa, x2 = 0.6235): 899.54 ± 0.44 kg/m3; mass density (352.81 K, 24010 kPa, x2 = 0.6235): 902.21 ± 0.44 kg/m3; mass density (352.81 K, 25062 kPa, x2 = 0.6235): 904.9 ± 0.44 kg/m3; mass density (352.86 K, 16031 kPa, x2 = 0.8091): 799.4 ± 0.48 kg/m3; mass density (352.86 K, 17002 kPa, x2 = 0.8091): 806.61 ± 0.49 kg/m3; mass density (352.86 K, 17024 kPa, x2 = 0.9311): 684.5 ± 0.61 kg/m3; mass density (352.86 K, 18005 kPa, x2 = 0.9311): 702.67 ± 0.59 kg/m3; mass density (352.86 K, 18047 kPa, x2 = 0.8091): 814.2 ± 0.48 kg/m3; mass density (352.86 K, 19028 kPa, x2 = 0.9311): 718.94 ± 0.57 kg/m3; mass density (352.86 K, 19050 kPa, x2 = 0.8091): 820.88 ± 0.48 kg/m3; mass density (352.86 K, 20001 kPa, x2 = 0.9311): 732.41 ± 0.56 kg/m3; mass density (352.86 K, 20005 kPa, x2 = 0.8091): 827.13 ± 0.48 kg/m3; mass density (352.86 K, 21006 kPa, x2 = 0.9311): 744.94 ± 0.55 kg/m3; mass density (352.86 K, 21045 kPa, x2 = 0.8091): 833.27 ± 0.48 kg/m3; mass density (352.86 K, 22024 kPa, x2 = 0.9311): 756.39 ± 0.54 kg/m3; mass density (352.86 K, 22052 kPa, x2 = 0.8091): 839.08 ± 0.47 kg/m3; mass density (352.86 K, 23012 kPa, x2 = 0.9311): 766.47 ± 0.53 kg/m3; mass density (352.86 K, 23029 kPa, x2 = 0.8091): 844.25 ± 0.47 kg/m3; mass density (352.86 K, 23999 kPa, x2 = 0.9311): 775.83 ± 0.53 kg/m3; mass density (352.86 K, 24015 kPa, x2 = 0.8091): 849.31 ± 0.47 kg/m3; mass density (352.86 K, 25019 kPa, x2 = 0.9311): 784.81 ± 0.52 kg/m3; mass density (352.86 K, 25051 kPa, x2 = 0.8091): 854.32 ± 0.46 kg/m3; mass density (352.87 K, 7031 kPa, x2 = 0.2876): 902.49 ± 0.41 kg/m3; mass density (352.87 K, 8016 kPa, x2 = 0.2876): 903.63 ± 0.41 kg/m3; mass density (352.87 K, 9024 kPa, x2 = 0.2876): 904.79 ± 0.41 kg/m3; mass density (352.87 K, 10008 kPa, x2 = 0.4268): 903.63 ± 0.41 kg/m3; mass density (352.87 K, 10027 kPa, x2 = 0.2876): 905.96 ± 0.41 kg/m3; mass density (352.87 K, 11005 kPa, x2 = 0.4268): 905.13 ± 0.42 kg/m3; mass density (352.87 K, 11011 kPa, x2 = 0.2876): 907.05 ± 0.41 kg/m3; mass density (352.87 K, 12022 kPa, x2 = 0.2876): 908.2 ± 0.41 kg/m3; mass density (352.87 K, 12055 kPa, x2 = 0.4268): 906.66 ± 0.42 kg/m3; mass density (352.87 K, 13022 kPa, x2 = 0.2876): 909.31 ± 0.42 kg/m3

— the NIST ThermoML archive (doi:10.1021/je050050p)
